Data set [1] is described as follows: Quantification of compounds in mice plasma by LC-MS-MS and PK parameters after i.v. injection. The class given is in vivo. To be noted: mouse, in vivo, iv, 25 mg/kg. Here is the method: Three Balb/C mice (6–8 weeks old) were intravenously injected with 25 mg/kg of strasseriolide D dissolved in 200 µL of vehicle (0.5%HPMC, 0.5% Tween 80 and 0.5% Benzyl alcohol in water). Blood samples were collected by pricking the […] on the leg of each mouse at time points 1.5 (T 1.5 h), 5 (T 5 h) and 24 h (T 24 h). From the harvested blood, 50 µL plasma were prepared for all the samples and stored at -80 °C until needed. A previously developed LC–MS–MS method (see supporting information) was used to determine the plasma concentration of strasseriolide D as described below.
Ten millimolar (10 mM) DMSO stocks of strasseriolide D (the test compound) and strasseriolide A (used as internal standard,) were prepared. From the strasseriolide D stock, a 59.7 µM (27,000 ppb) working concentration was made in DMSO and an aliquot of this was serially diluted (½) in reconstitution solution (1:1 of acetonitrile: H2O with 0.1% formic acid) to create a six-point calibration curve in triplicate. Three different quality control (QC) concentrations of strasseriolide D at 59.7, 0.74, and 0.25 µM (i.e. 27,000 ppb, 333 ppb and 111 ppb) were also prepared in duplicate. From the strasseriolide A (internal standard) stock, a 6.2 µM (2700 ppb) working concentration was prepared in DMSO.
Blank mouse plasma (prepared from non-injected mouse) was retrieved from the freezer (− 80 °C) and kept on ice to thaw. The sample was vortexed adequately and 15 µL aliquots transferred into 0.7 mL Eppendorf tubes after which 35 µL of Milli-Q water were added and vortexed. Triplicate sets of the diluted plasma were then respectively spiked with 2 uL of each concentration of the calibration curves of strasseriolide D. Another triplicate set of the diluted plasma was spiked with 2 µL of each concentration of the standard QC solutions. All the above samples were also spiked with 2 µL of strasseriolide A (the internal standard)). To serve as blank samples, a fresh triplicate set of diluted plasma were spiked with 4 µL of DMSO. Non-matrix samples were also prepared by spiking 100 µL aliquots of reconstitution solution with 2 µL of the standard QC solutions and 2 µL of internal standard.
Fifteen microlitres (15 µL) plasma from the various time points of the strasseriolide D-injected mice, were respectively transferred into 0.7 mL Eppendorf tubes. To each sample, 37 µL of Milli-Q water were added, vortexed and spiked with 2 µL of strasseriolide A (internal standard). Two hundred microlitres (200 µL) of ice-cold acetonitrile were added to all of the matrix (plasma-containing) samples and centrifuged at 13,300 rpm for 15 min at 4 °C. Subsequently, 180 µL aliquots were carefully transferred (without disturbing the protein precipitate) from each tube into clean HPLC vials and evaporated to dryness in an EZ2 Genevac at room temperature. The dried samples were then reconstituted in 40 µL of reconstitution solution by vortexing. The samples were placed in an auto-sampler drawer for LC–MS–MS analysis and quantification of strasseriolide D (the test compound) in mice plasma.
Similar sample preparation and LC–MS–MS analysis were respectively performed for mice intravenously injected with strasseriolides A and C as test compounds and mice blood samples collected at 30 min (T 30 M), 2 h (T 2 h), 6 h (T 6 h) and 24 h (T 24 h). […] For strasseriolides A, B and C as test compounds; strasseriolides C, D and B were respectively used as internal standards. After LC–MS–MS analysis, the plasma concentration of compound vs. time data was determined for each strasseriolide.
116 Table S2. QC table used to calculate the precision and accuracy of the method.
Compound Expected No. Experimental STD % %
conc. in values mean conc. deviation CV Accuracy
118 (5) The mean recovery rate for the test compound (strasseriolide B) – this was calculated
119 to be 29 % by comparing the plasma QC peak area ratios at the established retention time […]

Data set [2] is described as follows: Solubility in the formulation vehicle. It is filed as physicochemical. The following applies: at 25 mg/Kg dosage, about 5.53 mM in 200 µL vehicle; preliminary unpublished data.
[3] abbreviates: Balb/C, Calc. Conc. in plasma, individual mice.
[4] abbreviates: Balb/C, T1/2 (apparent terminal elimination half-life).

Values joined by “and” are separate entries in the source; they are usually repeats but may differ in a detail not shown here. Identical values can stand only once.

As a reminder, the AUC(0-inf) is the area under the concentration-time curve extrapolated to infinity. Low readings indicate low exposure, high ones high exposure. As a reminder, the Cmax is the maximum level reached in the sampled fluid or tissue. Broadly, the MRT is a mean duration of stay, worked out from the concentration-time curve. One may read the MRT inf as a mean duration of stay, worked out from the concentration-time curve. In general, Tmax refers to the time from dosing to the highest level. As a reminder, the AUC(0-t) is exposure summed from dosing to a finite time, without extrapolation to infinity. Low readings indicate low exposure, high ones high exposure. Broadly, the half-life is how long it takes for the measured level to halve. Turning to `C/C1=C\[C@H](C)C(=O)C[C@@H](O)/C(C)=C/[C@H](C)C[C@@H](C)CC[C@@H]([C@@H](C)C(=O)O)OC(=O)[C@@H](C)C1` [Strasseriolide C, strasseriolide C], in data set [1] (Balb/C), the “AUC 0-t/0-inf_obs” value turned out to be 0.9595; the area under the curve AUC(0-inf) is 359 ng·h/mL and 0.798 µM·h; the C0 was 203 ng/mL and 452 nM; the Clast_obs/Cmax amounted to 0.01432. In data set [1] (Balb/C), the Cmax was 111 ng/mL and 246 nM; the mean residence time (MRT) was 4.7 h; the MRT inf came out at 4.71 h; the Tmax came out at 0.5 h. Moreover, in data set [1] (Balb/C), the Vss_obs is 0.3281 (mg/kg)/(ng/ml), the “Vz_obs (plasma distribution volume)” value amounted to 636.8 L/kg and the k el is 3.04e-05 s⁻¹. Besides, the AUC(0-t) in data set [1] (Balb/C, AUC 0-t) is 345 ng·h/mL and 0.766 µM·h. In data set [1] (Balb/C, AUC0−t), this molecule registered an AUC(0-t) of 0.766 µM·h. In data set [1] (Balb/C, Ave. Conc. in plasma), this molecule had a concentration at 0.5 h of 246 nM, a concentration at 2 h of 40 nM, a concentration at 6 h of 24 nM and a concentration at 24 h of 3.54 nM. Further, in data set [1] (setting [3]), the concentration at 0.5 h was 122 ng/mL and 271 nM; the concentration at 2 h is 20.7 ng/mL and 46 nM; the concentration at 6 h is 11.4 ng/mL and 23.1 nM; the concentration at 24 h was 2.04 ng/mL and 4.53 nM. In data set [1] (Balb/C, Plasma Conc. @T24 h), the concentration at 24 h is 3.5 ± 0.9 nM. Besides, the half-life in data set [1] (setting [4]) was 6.3 h. The half-life in data set [1] (Balb/C, t1/2) was 6.34 h. Also, in data set [1], the Cl_obs is given as 0.06959 (mg/kg)/(ng/ml)/h.

Turning to `C/C1=C\[C@H](C)[C@@H](O)C[C@@H](O)/C(C)=C/[C@H](C)C[C@@H](C)CC[C@@H]([C@@H](C)C(=O)O)OC(=O)[C@@H](C)C1` [Strasseriolide D, strasseriolide D], in data set [2], the “soluble in the formulation vehicle” value amounted to 35%. In addition, in data set [1] (Balb/C), the “AUC 0-t/0-inf_obs” value is given as 0.8996; the AUC(0-inf) was 5050 ng·h/mL and 11.2 µM·h; the C0 was 929 ng/mL and 2.06 µM; the Clast_obs/Cmax is on record as 0.08582. In data set [1] (Balb/C), the Cmax is 564 ng/mL and 1.25 µM; the mean residence time MRT amounted to 8 h; the MRT inf came out at 8.02 h; the Tmax was 1.5 h. Moreover, in data set [1] (Balb/C), the Vss_obs is recorded as 0.03969 (mg/kg)/(ng/ml), the “Vz_obs (plasma distribution volume)” value turned out to be 51.9 L/kg and the k el was 2.65e-05 s⁻¹. Further, in data set [1] (Balb/C, AUC 0-t), the AUC(0-t) is 10.1 µM·h and 4550 ng·h/mL. Also, in data set [1] (Balb/C, AUC0−t), the AUC(0-t) worked out at 10.1 µM·h. In data set [1] (Balb/C, Ave. Conc. in plasma), this molecule displayed a concentration at 1.5 h of 1250 nM, a concentration at 5 h of 389 nM and a concentration at 24 h of 107 nM. In data set [1] (setting [3]), the concentration at 5 h was 168 ng/mL and 431 nM; the concentration at 24 h was 49.2 ng/mL and 109 nM. In addition, in data set [1] (Balb/C, Plasma Conc. @T24 h), the concentration at 24 h came out at 107 ± 5 nM. Moreover, in data set [1] (setting [4]), the half-life was 7.3 h. The molecule also showed a half-life in data set [1] (Balb/C, t1/2) of 7.27 h. The Cl_obs in data set [1] was 0.004946 (mg/kg)/(ng/ml)/h.

The record behind these values is paper PMC8647499, “Preclinical evaluation of strasseriolides A–D, potent antiplasmodial macrolides isolated from Strasseria geniculata CF-247,251” (Malaria Journal, 2021).
